Results as given in patent US12077503B2, “Substituted cyclic amides and their use as herbicides” (FMC CORPORATION, priority 2015, dated 2024).

Columns and labels:
Type in all cases: in vivo
[1] = test system: barnyardgrass (Echinochloa crus-galli); assay: Test G Pre-Emergence Protocol; details: Echinochloa crus-galli, pre-emergence, 312 h, evaluated after 13 days
Method in brief: (§1)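 Under a 24/16° C day/night regime with 14 h light and 65% humidity, sown pots were sprayed after one day with compound (15.625, 62.5 or 250 g/ha; 50:50 acetone/water, 0.5% Tween 20). Damage was assessed visually 13 days later, 0 to 100.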

[2] = test system: corn (Zea mays); assay: Test G Pre-Emergence Protocol; details: Zea mays, pre-emergence, 312 h, evaluated after 13 days
Method in brief: as §1

[3] = test system: giant foxtail (Setaria faberi); assay: Test G Pre-Emergence Protocol; details: Setaria faberi, pre-emergence, 312 h, evaluated after 13 days
Method in brief: as §1

[4] = test system: ivy-leaved morning glory (Ipomoea hederacea); assay: Test G Pre-Emergence Protocol; details: Ipomoea, pre-emergence, 312 h, evaluated after 13 days
Method in brief: as §1

[5] = test system: redroot pigweed (Amaranthus retroflexus); assay: Test G Pre-Emergence Protocol; details: Amaranthus retroflexus, pre-emergence, 312 h, evaluated after 13 days
Method in brief: as §1

[6] = test system: velvetleaf (Abutilon theophrasti); assay: Test G Pre-Emergence Protocol; details: Abutilon theophrasti, pre-emergence, 312 h, evaluated after 13 days
Method in brief: as §1

[7] = test system: barnyardgrass (Echinochloa crus-galli); assay: Test G Post-Emergence Protocol; details: Echinochloa crus-galli, post-emergence, 312 h
Method in brief: (§2)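 Foliar application was made 8 days after sowing, using an aqueous spray of the active in acetone/water (50:50) with 0.5% Tween 20, at doses of 15.625, 62.5 or 250 g/ha. Injury was assessed 13 days later, where 100 meant the plant was fully damaged.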

[8] = test system: corn (Zea mays); assay: Test G Post-Emergence Protocol; details: Zea mays, post-emergence, 312 h
Method in brief: as §2

[9] = test system: giant foxtail (Setaria faberi); assay: Test G Post-Emergence Protocol; details: Setaria faberi, post-emergence, 312 h
Method in brief: as §2

[10] = test system: ivy-leaved morning glory (Ipomoea hederacea); assay: Test G Post-Emergence Protocol; details: Ipomoea, post-emergence, 312 h
Method in brief: as §2

[11] = test system: redroot pigweed (Amaranthus retroflexus); assay: Test G Post-Emergence Protocol; details: Amaranthus retroflexus, post-emergence, 312 h
Method in brief: as §2

[12] = test system: velvetleaf (Abutilon theophrasti); assay: Test G Post-Emergence Protocol; details: Abutilon theophrasti, post-emergence, 312 h
Method in brief: as §2

## CN1C[C@@H](c2ccc(C(F)(F)F)cc2)[C@@](O)(C(=O)Nc2cccc(F)c2F)C1=O (racemic) [Compound 1403]
[1]; 15.625 g ai/ha, read-out: Barnyard grass damage rating (100=total damage to plant; 0=no damage to plant)
  pest or weed control at 15.625 g/ha: 0%
[1]; 62.5 g ai/ha, 100=total damage to plant, 0=no damage to plant, read-out: plant damage rating, Barnyardgrass
  pest or weed control at 62.5 g/ha: 0%
[1]; 250 g ai/ha, read-out: Barnyardgrass damage rating (100=total damage to plant; 0=no damage to plant)
  pest or weed control at 250 g/ha: 0%
[2]; 15.625 g ai/ha, read-out: Corn damage rating (100=total damage to plant; 0=no damage to plant)
  plant injury at 15.625 g/ha: 0%
[2]; 62.5 g ai/ha, 100=total damage to plant, 0=no damage to plant, read-out: plant damage rating, Corn
  plant injury at 62.5 g/ha: 0%
[2]; 250 g ai/ha, read-out: Corn damage rating (100=total damage to plant; 0=no damage to plant)
  plant injury at 250 g/ha: 0%
[3]; 15.625 g ai/ha, read-out: Foxtail, Giant damage rating (100=total damage to plant; 0=no damage to plant)
  pest or weed control at 15.625 g/ha: 0%
[3]; 62.5 g ai/ha, 100=total damage to plant, 0=no damage to plant, read-out: plant damage rating, Foxtail, Giant
  pest or weed control at 62.5 g/ha: 0%
[3]; 250 g ai/ha, read-out: Foxtail, Giant damage rating (100=total damage to plant; 0=no damage to plant)
  pest or weed control at 250 g/ha: 0%
[4]; 15.625 g ai/ha, read-out: Morning-glory, Ivy-leaved damage rating (100=total damage to plant; 0=no damage to plant)
  pest or weed control at 15.625 g/ha: 0%
[4]; 62.5 g ai/ha, 100=total damage to plant, 0=no damage to plant, read-out: plant damage rating, Morningglory, Ivy-leaved
  pest or weed control at 62.5 g/ha: 0%
[4]; 250 g ai/ha, read-out: Morningglory, Ivy-leaved damage rating (100=total damage to plant; 0=no damage to plant)
  pest or weed control at 250 g/ha: 0%
[5]; 15.625 g ai/ha, read-out: Pigweed, Redroot damage rating (100=total damage to plant; 0=no damage to plant)
  pest or weed control at 15.625 g/ha: 0%
[5]; 62.5 g ai/ha, 100=total damage to plant, 0=no damage to plant, read-out: plant damage rating, Pigweed, Redroot
  pest or weed control at 62.5 g/ha: 0%
[5]; 250 g ai/ha, read-out: Pigweed, Redroot damage rating (100=total damage to plant; 0=no damage to plant)
  pest or weed control at 250 g/ha: 0%
[6]; 15.625 g ai/ha, read-out: Velvetleaf damage rating (100=total damage to plant; 0=no damage to plant)
  pest or weed control at 15.625 g/ha: 0%
[6]; 62.5 g ai/ha, 100=total damage to plant, 0=no damage to plant, read-out: plant damage rating, Velvetleaf
  pest or weed control at 62.5 g/ha: 0%
[6]; 250 g ai/ha, read-out: Velvetleaf damage rating (100=total damage to plant; 0=no damage to plant)
  pest or weed control at 250 g/ha: 0%
[7]; 15.625 g ai/ha, evaluated after 13 days (100=total damage to plant; 0=no damage to plant), read-out: Barnyardgrass damage rating
  pest or weed control at 15.625 g/ha: 0%
[7]; 62.5 g ai/ha, evaluated after 13 days, read-out: Barnyardgrass damage rating (100=total damage to plant; 0=no damage to plant)
  pest or weed control at 62.5 g/ha: 0%
[7]; 250 g ai/ha, evaluated after 13 days, read-out: damage to plant, Barnyardgrass (100=total damage to plant; 0=no damage to plant)
  pest or weed control at 250 g/ha: 10%
[8]; 15.625 g ai/ha, evaluated after 13 days (100=total damage to plant; 0=no damage to plant), read-out: Corn damage rating
  plant injury at 15.625 g/ha: 10%
[8]; 62.5 g ai/ha, evaluated after 13 days, read-out: Corn damage rating (100=total damage to plant; 0=no damage to plant)
  plant injury at 62.5 g/ha: 10%
[8]; 250 g ai/ha, evaluated after 13 days, read-out: damage to plant, Corn (100=total damage to plant; 0=no damage to plant)
  plant injury at 250 g/ha: 20%
[9]; 15.625 g ai/ha, evaluated after 13 days (100=total damage to plant; 0=no damage to plant), read-out: Foxtail, Giant damage rating
  pest or weed control at 15.625 g/ha: 0%
[9]; 62.5 g ai/ha, evaluated after 13 days, read-out: Foxtail, Giant damage rating (100=total damage to plant; 0=no damage to plant)
  pest or weed control at 62.5 g/ha: 0%
[9]; 250 g ai/ha, evaluated after 13 days, read-out: damage to plant, Foxtail, Giant (100=total damage to plant; 0=no damage to plant)
  pest or weed control at 250 g/ha: 0%
[10]; 15.625 g ai/ha, evaluated after 13 days (100=total damage to plant; 0=no damage to plant), read-out: Morningglory, Ivy-leaved damage rating
  pest or weed control at 15.625 g/ha: 0%
[10]; 62.5 g ai/ha, evaluated after 13 days, read-out: Morningglory, Ivy-leaved damage rating (100=total damage to plant; 0=no damage to plant)
  pest or weed control at 62.5 g/ha: 0%
[10]; 250 g ai/ha, evaluated after 13 days, read-out: damage to plant, Morningglory, Ivy-leaved (100=total damage to plant; 0=no damage to plant)
  pest or weed control at 250 g/ha: 0%
[11]; 15.625 g ai/ha, evaluated after 13 days (100=total damage to plant; 0=no damage to plant), read-out: Pigweed, Redroot damage rating
  pest or weed control at 15.625 g/ha: 10%
[11]; 62.5 g ai/ha, evaluated after 13 days, read-out: Pigweed, Redroot damage rating (100=total damage to plant; 0=no damage to plant)
  pest or weed control at 62.5 g/ha: 10%
[11]; 250 g ai/ha, evaluated after 13 days, read-out: damage to plant, Pigweed, Redroot (100=total damage to plant; 0=no damage to plant)
  pest or weed control at 250 g/ha: 10%
[12]; 15.625 g ai/ha, evaluated after 13 days (100=total damage to plant; 0=no damage to plant), read-out: Velvetleaf damage rating
  pest or weed control at 15.625 g/ha: 0%
[12]; 62.5 g ai/ha, evaluated after 13 days, read-out: Velvetleaf damage rating (100=total damage to plant; 0=no damage to plant)
  pest or weed control at 62.5 g/ha: 0%
[12]; 250 g ai/ha, evaluated after 13 days, read-out: damage to plant, Velvetleaf (100=total damage to plant; 0=no damage to plant)
  pest or weed control at 250 g/ha: 0%
